Tested on: Malassezia furfur CBS1878
Assay: Anti Malassezia activity: enumeration of residual microorganisms after contact with test product
Assay type: cell-based
Conditions: for Enumeration of residual microorganisms after contact: product in mixture A inoculated with 1% inoculum of M. furfur at 10^7 CFU/ml; for log reduction value: versus initial number of microorganisms
Protocol: Indeed, M. furfur may proliferate anew if it is not completely or sufficiently removed. […] This component is generally measured by estimating the decay of microbial colonies over time.
Five formulas are tested in this test: • A compound used as reference: zinc pyrithione at 1.0% w/w in a mixture A comprising: sodium laureth sulfate 14.3%, alkyl dimethyl betaine 10.0%, decyl glucoside 3.8%, sorbitan monolaurate 2.0%, citric acid monohydrate 10% solution, qs pH=5; water qs 100; • A Zingiber zerumbet rhizome extract obtained by heptanic extraction from the dry and ground rhizome, at 2.0% w/w in mixture A; • A Zingiber zerumbet rhizome extract obtained by ethanolic extraction, at 2.0% w/w in mixture A; • A Zingiber zerumbet rhizome extract obtained by supercritical CO2 in a water-soluble excipient (butylene glycol) at 3.0% w/w in mixture A. This is a commercial material called Legance®, sold by the firm Sederma. The INCI name of this material is: Butylene glycol-Zingiber Zerumbet Extract.
An inoculation of 20 g of test product is carried out with 1% inoculum of Malassezia furfur titrating at 10^7 CFU/ml. After a determined contact time, 1 g of product is taken and a 1/10 dilution is carried out in the neutralizing diluent. Successive dilutions at 1/10 up to 1/1000 dilution are carried out in the diluent. 1 ml is filtered on a 0.45 μm membrane in ester and cellulose acetate in the presence of 50 ml of sterile demineralized water (SDW), then two rinses are carried out with 50 ml of SDW.
The chosen contact times are 1 h, 2 h, 5 h and 8 hours. The neutralizing diluent is TSB+10% polysorbate 80, the diluent is tryptone-salt. The rinsing liquid is sterile demineralized water.

Which results are given for zinc pyrithione [Compound 1]?
activity on Malassezia furfur (in words): shows activity on Malassezia furfur from 1 hour of contact; reduction in the number of microorganisms (8 hours of contact): exceeds 3 log; Enumeration of residual microorganisms after contact (contact time 1 hour): 7.2 × 10^4 CFU/g; log reduction value (contact time 1 hour): 0.23; Enumeration of residual microorganisms after contact (contact time 2 hours): 4.8 × 10^4 CFU/g; log reduction value (contact time 2 hours): 0.40; Enumeration of residual microorganisms after contact (contact time 5 hours): 4.9 × 10^3 CFU/g; log reduction value (contact time 5 hours): 1.39; Enumeration of residual microorganisms after contact (contact time 8 hours): <1.0 × 10^2 CFU/g; log reduction value (contact time 8 hours): >3.08

From patent US20220016197A1, “ZINGIBER ZERUMBET EXTRACT FOR COMBATING DANDRUFF” (PIERRE FABRE DERMO-COSMETIQUE, priority 2018, published 2022)
